Measurements: patent US20250352520A1, “USE OF DEXPRAMIPEXOLE FOR THE TREATMENT OF EOSINOPHILIC COPD” (Areteia Therapeutics, Inc., priority 2024, published 2025)
Like-named read-outs stand apart in the source and are kept apart here.

Columns and labels:
[1] = Week 16
Description: Participants performed post-BD spirometry at specific visits as noted in the SOA.
After completing the pre-BD spirometry, participants inhaled four puffs of albuterol/salbutamol (site sourced) metered dose inhaler (approximately 100 μg albuterol/salbutamol base per actuation), with each actuation 1 minute apart. Post-BD spirometry was assessed within 15 to 30 minutes after inhalation of albuterol/salbutamol.

[2] = 150 mg BID; participants with ALS and EADs; cited from earlier work
[3] = across the dose groups at various time-points
[4] = <50% AEC reduction at Week 16 (N = 4), 150 mg BID
[5] = >=50% AEC reduction at Week 16 (N = 3), 150 mg BID

In the case of `CCCN[C@@H]1CCc2nc(N)sc2C1` [Dexpramipexole, (6R)-2-amino-4,5,6,7-tetrahydro-6-(propylamino)benzothiazole], the “Post bronchodilator Peak Flow, Observed, Min” value [1, 4] is reported as 146 L/min, the “Post bronchodilator Peak Flow, Observed, Q1” value [1, 4] is reported as 227 L/min and the “Post bronchodilator Peak Flow, Observed, Q3” value [1, 4] is reported as 425 L/min. For the same compound, the “Post-BD FEV1 % change from baseline, Max” value ([1]; >=50% AEC reduction at Week 16) was 57%, the “Post-BD FEV1 % change from baseline, Mean ± SD” value ([1]; >=50% AEC reduction at Week 16) was 16.6 ± 35.02% and the “Post-BD FEV1 % change from baseline, Median” value ([1]; >=50% AEC reduction at Week 16) was −1.1%. For the same compound, the “Post-BD FEV1 % change from baseline, Min” value ([1]; >=50% AEC reduction at Week 16) was −6%, the “Post-BD FEV1 % change from baseline, Q1” value ([1]; >=50% AEC reduction at Week 16) was −6% and the “Post-BD FEV1 % change from baseline, Q3” value ([1]; >=50% AEC reduction at Week 16) was 57%. The “Post-BD FEV1 Observed, Max” value ([1]; >=50% AEC reduction at Week 16) was 2150 mL, the “Post-BD FEV1 Observed, Mean ± SD” value ([1]; >=50% AEC reduction at Week 16) was 1593.3 ± 616.95 mL and the “Post-BD FEV1 Observed, Median” value ([1]; >=50% AEC reduction at Week 16) was 1700.0 mL. The “Post-BD FEV1 Observed, Min” value ([1]; >=50% AEC reduction at Week 16) was 930 mL, the “Post-BD FEV1 Observed, Q1” value ([1]; >=50% AEC reduction at Week 16) was 930 mL and the “Post-BD FEV1 Observed, Q3” value ([1]; >=50% AEC reduction at Week 16) was 2150 mL. The “Post-BD FEV1 change from baseline, Max” value ([1]; >=50% AEC reduction at Week 16) was 780 mL, the “Post-BD FEV1 change from baseline, Mean ± SD” value ([1]; >=50% AEC reduction at Week 16) was 220.0 ± 487.54 mL and the “Post-BD FEV1 change from baseline, Median” value ([1]; >=50% AEC reduction at Week 16) was -10.0 mL. The “Post-BD FEV1 change from baseline, Min” value ([1]; >=50% AEC reduction at Week 16) was -110 mL, the “Post-BD FEV1 change from baseline, Q1” value ([1]; >=50% AEC reduction at Week 16) was -110 mL and the “Post-BD FEV1 change from baseline, Q3” value ([1]; >=50% AEC reduction at Week 16) was 780 mL. The “Post bronchodilator Forced Expiratory Flow 25-75% (FEF25-75), % CFB (Percent change from baseline), Max” value [1, 5] was 81%, the “Post bronchodilator Forced Expiratory Flow 25-75% (FEF25-75), % CFB (Percent change from baseline), Mean ± SD” value [1, 5] was 26.7 ± 49.08% and the “Post bronchodilator Forced Expiratory Flow 25-75% (FEF25-75), % CFB (Percent change from baseline), Median” value [1, 5] was 12.5%. For the same compound, the “Post bronchodilator Forced Expiratory Flow 25-75% (FEF25-75), % CFB (Percent change from baseline), Min” value [1, 5] was −14%, the “Post bronchodilator Forced Expiratory Flow 25-75% (FEF25-75), % CFB (Percent change from baseline), Q1” value [1, 5] was −14% and the “Post bronchodilator Forced Expiratory Flow 25-75% (FEF25-75), % CFB (Percent change from baseline), Q3” value [1, 5] was 81%. The “Post bronchodilator Forced Expiratory Flow 25-75% (FEF25-75), CFB (Change from baseline), Max” value [1, 5] was 520 mL/s, the “Post bronchodilator Forced Expiratory Flow 25-75% (FEF25-75), CFB (Change from baseline), Mean ± SD” value [1, 5] was 130.0 ± 350.86 mL/s and the “Post bronchodilator Forced Expiratory Flow 25-75% (FEF25-75), CFB (Change from baseline), Median” value [1, 5] was 30.0 mL/s. For the same compound, the “Post bronchodilator Forced Expiratory Flow 25-75% (FEF25-75), CFB (Change from baseline), Min” value [1, 5] was -160 mL/s, the “Post bronchodilator Forced Expiratory Flow 25-75% (FEF25-75), CFB (Change from baseline), Q1” value [1, 5] was -160 mL/s and the “Post bronchodilator Forced Expiratory Flow 25-75% (FEF25-75), CFB (Change from baseline), Q3” value [1, 5] was 520 mL/s. The “Post bronchodilator Forced Expiratory Flow 25-75% (FEF25-75), Observed, Max” value [1, 5] was 1160 mL/s, the “Post bronchodilator Forced Expiratory Flow 25-75% (FEF25-75), Observed, Mean ± SD” value [1, 5] was 810.0 ± 474.45 mL/s and the “Post bronchodilator Forced Expiratory Flow 25-75% (FEF25-75), Observed, Median” value [1, 5] was 1000.0 mL/s. For the same compound, the “Post bronchodilator Forced Expiratory Flow 25-75% (FEF25-75), Observed, Min” value [1, 5] was 270 mL/s, the “Post bronchodilator Forced Expiratory Flow 25-75% (FEF25-75), Observed, Q1” value [1, 5] was 270 mL/s and the “Post bronchodilator Forced Expiratory Flow 25-75% (FEF25-75), Observed, Q3” value [1, 5] was 1160 mL/s. For the same compound, the “Post bronchodilator Forced Vital Capacity (FVC), % CFB (Percent change from baseline), Max” value [1, 5] was 36%, the “Post bronchodilator Forced Vital Capacity (FVC), % CFB (Percent change from baseline), Mean ± SD” value [1, 5] was 9.2 ± 23.24% and the “Post bronchodilator Forced Vital Capacity (FVC), % CFB (Percent change from baseline), Median” value [1, 5] was −2.4%. For the same compound, the “Post bronchodilator Forced Vital Capacity (FVC), % CFB (Percent change from baseline), Min” value [1, 5] was −6%, the “Post bronchodilator Forced Vital Capacity (FVC), % CFB (Percent change from baseline), Q1” value [1, 5] was −6% and the “Post bronchodilator Forced Vital Capacity (FVC), % CFB (Percent change from baseline), Q3” value [1, 5] was 36%. For the same compound, the “Post bronchodilator Forced Vital Capacity (FVC), CFB (Change from baseline), Max” value [1, 5] was 900 mL, the “Post bronchodilator Forced Vital Capacity (FVC), CFB (Change from baseline), Mean ± SD” value [1, 5] was 226.7 ± 585.26 mL and the “Post bronchodilator Forced Vital Capacity (FVC), CFB (Change from baseline), Median” value [1, 5] was -60.0 mL. The “Post bronchodilator Forced Vital Capacity (FVC), CFB (Change from baseline), Min” value [1, 5] was -160 mL, the “Post bronchodilator Forced Vital Capacity (FVC), CFB (Change from baseline), Q1” value [1, 5] was -160 mL and the “Post bronchodilator Forced Vital Capacity (FVC), CFB (Change from baseline), Q3” value [1, 5] was 900 mL. The “Post bronchodilator Forced Vital Capacity (FVC), Observed, Max” value [1, 5] was 3400 mL, the “Post bronchodilator Forced Vital Capacity (FVC), Observed, Mean ± SD” value [1, 5] was 2796.7 ± 527.86 mL and the “Post bronchodilator Forced Vital Capacity (FVC), Observed, Median” value [1, 5] was 2570.0 mL. For the same compound, the “Post bronchodilator Forced Vital Capacity (FVC), Observed, Min” value [1, 5] was 2420 mL, the “Post bronchodilator Forced Vital Capacity (FVC), Observed, Q1” value [1, 5] was 2420 mL and the “Post bronchodilator Forced Vital Capacity (FVC), Observed, Q3” value [1, 5] was 3400 mL. The “Post bronchodilator Peak Flow, % CFB (Percent change from baseline), Max” value [1, 5] was 103%, the “Post bronchodilator Peak Flow, % CFB (Percent change from baseline), Mean ± SD” value [1, 5] was 40.2 ± 55.44% and the “Post bronchodilator Peak Flow, % CFB (Percent change from baseline), Median” value [1, 5] was 21.5%. For the same compound, the “Post bronchodilator Peak Flow, % CFB (Percent change from baseline), Min” value [1, 5] was −3%, the “Post bronchodilator Peak Flow, % CFB (Percent change from baseline), Q1” value [1, 5] was −3% and the “Post bronchodilator Peak Flow, % CFB (Percent change from baseline), Q3” value [1, 5] was 103%. The “Post bronchodilator Peak Flow, CFB (Change from baseline), Max” value [1, 5] was 161 L/min, the “Post bronchodilator Peak Flow, CFB (Change from baseline), Mean ± SD” value [1, 5] was 64.3 ± 86.56 L/min and the “Post bronchodilator Peak Flow, CFB (Change from baseline), Median” value [1, 5] was 38.0 L/min. The “Post bronchodilator Peak Flow, CFB (Change from baseline), Min” value [1, 5] was -6 L/min, the “Post bronchodilator Peak Flow, CFB (Change from baseline), Q1” value [1, 5] was -6 L/min and the “Post bronchodilator Peak Flow, CFB (Change from baseline), Q3” value [1, 5] was 161 L/min. For the same compound, the “Post bronchodilator Peak Flow, Observed, Max” value [1, 5] was 318 L/min, the “Post bronchodilator Peak Flow, Observed, Mean ± SD” value [1, 5] was 233.0 ± 77.58 L/min and the “Post bronchodilator Peak Flow, Observed, Median” value [1, 5] was 215.0 L/min. For the same compound, the “Post bronchodilator Peak Flow, Observed, Min” value [1, 5] was 166 L/min, the “Post bronchodilator Peak Flow, Observed, Q1” value [1, 5] was 166 L/min and the “Post bronchodilator Peak Flow, Observed, Q3” value [1, 5] was 318 L/min. For the same compound, the safety profile [2] was “favorable safety profile” and the “placebo-corrected change from baseline in pre-BD FEV1” value [3] was “clinically meaningful”.
